“And” between values parts separate entries of the source, which are not always exact repeats. Equal values may be shown once.
Tests used:
Assay type in all cases: in vivo
[1] = Pharmacokinetics of a single oral dose of Toltrazuril in horses (blood levels); conditions: single oral dose of Toltrazuril 10 mg/kg; for concentration at 24 h / Concentration in mg/l of Blood, 24 hours: 24 h post treatment; for concentration at 24 h: read-out: Concentration in mg/l of Blood, 24 hours; for concentration at 48 h / Concentration in mg/l of Blood, 48 hours: 48 h post treatment; for concentration at 48 h: read-out: Concentration in mg/l of Blood, 48 hours; for concentration at 72 h / Concentration in mg/l of Blood, 72 hours: 72 h post treatment; for concentration at 72 h: read-out: Concentration in mg/l of Blood, 72 hours; for Concentration in mg/l of Blood, 24 hours: 1440 min; for Concentration in mg/l of Blood, 48 hours: 2880 min; for Concentration in mg/l of Blood, 72 hours: 4320 min
Description: A pharmacokinetic study was conducted in horses comparing blood levels of Toltrazuril, Ponazuril and Toltrazuril Sulfoxide at various times post a single dose of Toltrazuril. All horses received a single dose of 10 mg/kg, which was administered orally as a suspension. Blood samples were drawn at the time of treatment (0) and at 0.25, 0.5, 1, 2, 4, 6, 12, 24, 48 and 72 hours post treatment. […] This was an indication that Ponazuril, alone, would produce acceptable blood levels that are envisioned to pass the blood-brain barrier, a characteristic required to treat neurological diseases such as those caused by Sarcocystis neurona, Toxoplasma gondii, Neospora caninum and Neospora

[2] = Drug levels in cerebral spinal fluid after repeated doses of Toltrazuril in horses; design: Drug level in Cerebral Spinal Fluid, Day 10 / AVG drug level in Cerebral Spinal Fluid, Day 10: unit not given here; conditions: Day 10; for AVG drug level in Cerebral Spinal Fluid, Day 10: group average; for Drug level in Cerebral Spinal Fluid, Day 10: individual horse
Description: (§1) This experiment was conducted in order to determine whether triazineones such as Toltrazuril can pass the blood-brain barrier. Normal horses were divided into three groups of three horses per group. Group 1 horses received Toltrazuril administered orally as a 5% suspension at a dose level of 2.5 mg/Kg. Group 2 horses received Toltrazuril administered orally as a 5% suspension at a dose level of 5.0 mg/Kg. Group 3 horses received Toltrazuril administered orally as a 5% suspension at a dose level of 7.5 mg/Kg. The dosing was repeated daily for 10 days. Blood samples were drawn at 48, 96 and 240 hours and the concentration of Toltrazuril, Toltrazuril sulfoxide and Ponazuril in the serum was measured. Ten days after the start of the treatment (Day 10), a sample of cerebral spinal fluid was removed from each horse and the concentrations of Toltrazuril, Toltrazuril Sulfoxide and Ponazuril were again measured in these samples. The concentrations of Toltrazuril, Toltrazuril Sulfoxide and Ponazuril in the serum and cerebral spinal fluid are reported in TABLES 5a and 5b.

[3] = Passing of the blood-brain barrier in horses; conditions: after oral Toltrazuril daily for 10 days
Description: as §1

[4] = Drug levels in serum after repeated doses of Toltrazuril in horses; design: unit not given here; conditions: for AVG drug level in serum, 48 Hrs / AVG drug level in serum, 96 Hrs / AVG drug level in serum, 240 Hrs: group average; for Drug level in serum, 48 Hrs / Drug level in serum, 96 Hrs / Drug level in serum, 240 Hrs: individual horse
Description: as §1

[5] = horse, blood, po, 10 mg/kg, suspension, one value per horse (A-F)
[6] = suspension, one value per horse (A-F), 10 mg/kg
[7] = Toltrazuril 2.5 mg/Kg oral daily for 10 days
[8] = Toltrazuril 5.0 mg/Kg oral daily for 10 days
[9] = Toltrazuril 7.5 mg/Kg oral daily for 10 days

Compound: Cc1cc(-n2c(=O)[nH]c(=O)n(C)c2=O)ccc1Oc1ccc([S+]([O-])C(F)(F)F)cc1 (centres unmarked) [Toltrazuril Sulfoxide]
- concentration at 0.25 h ([1]; horse, blood, po, 10 mg/kg, suspension, 0.25 h post treatment, one value per horse (A-F), read-out: Concentration in mg/l of Blood, 0.25 hours): < 0.01 mg/L
- concentration at 24 h [1, 5]: 0.407 mg/L
- concentration at 48 h [1, 5]: 0.732 mg/L
- concentration at 72 h [1, 5]: 0.592 mg/L
- levels in serum/bloodstream of horses receiving Toltrazuril (in words) [1]: significant levels
- Concentration in mg/l of Blood, 24 hours [1, 6]: 0.566 mg/L and 0.461 mg/L and 0.481 mg/L and 0.633 mg/L
- Concentration in mg/l of Blood, 48 hours [1, 6]: 0.454 mg/L and 0.477 mg/L and 0.749 mg/L and 0.741 mg/L and 0.642 mg/L
- Concentration in mg/l of Blood, 72 hours [1, 6]: 0.346 mg/L and 0.377 mg/L

Compound: Cc1cc(-n2c(=O)[nH]c(=O)n(C)c2=O)ccc1Oc1ccc(SC(F)(F)F)cc1 [Toltrazuril, reference compound]
- AVG drug level in Cerebral Spinal Fluid, Day 10 [2, 7]: 0.15
- Drug level in Cerebral Spinal Fluid, Day 10 [2, 7]: 0.23 and 0.06 and 0.15
- AVG drug level in Cerebral Spinal Fluid, Day 10 [2, 8]: 0.19
- Drug level in Cerebral Spinal Fluid, Day 10 [2, 8]: 0.19 and 0.12 and 0.26
- AVG drug level in Cerebral Spinal Fluid, Day 10 [2, 9]: 0.39
- Drug level in Cerebral Spinal Fluid, Day 10 [2, 9]: 0.50 and 0.21 and 0.45
- concentration at 24 h [1, 5]: 6.43 mg/L
- concentration at 48 h [1, 5]: 7.61 mg/L
- concentration at 72 h [1, 5]: 6.65 mg/L
- Concentration in mg/l of Blood, 0.25 hours ([1]; suspension, 0.25 h post treatment, one value per horse (A-F), 10 mg/kg, 15 min): 0.061 mg/L
- Concentration in mg/l of Blood, 1 hour ([1]; suspension, 1 h post treatment, one value per horse (A-F), 10 mg/kg, 60 min): 3.286 mg/L
- Concentration in mg/l of Blood, 24 hours [1, 6]: 11.690 mg/L and 7.236 mg/L and 8.694 mg/L and 10.224 mg/L
- Concentration in mg/l of Blood, 48 hours [1, 6]: 6.677 mg/L and 9.758 mg/L and 8.234 mg/L and 6.869 mg/L and 7.096 mg/L
- Concentration in mg/l of Blood, 72 hours [1, 6]: 5.058 mg/L and 7.633 mg/L
- crossing of the blood-brain barrier [3]: effectively cross the blood-brain barrier
- AVG drug level in serum, 48 Hrs [4, 7]: 6.70
- AVG drug level in serum, 96 Hrs [4, 7]: 10.68
- AVG drug level in serum, 240 Hrs [4, 7]: 13.37
- Drug level in serum, 48 Hrs [4, 7]: 4.49 and 4.0 and 11.6
- Drug level in serum, 96 Hrs [4, 7]: 9.85 and 9.09 and 13.1
- Drug level in serum, 240 Hrs [4, 7]: 15.29 and 9.60 and 15.21
- AVG drug level in serum, 48 Hrs [4, 8]: 8.57
- AVG drug level in serum, 96 Hrs [4, 8]: 15.46
- AVG drug level in serum, 240 Hrs [4, 8]: 19.68
- Drug level in serum, 48 Hrs [4, 8]: 7.28 and 9.18 and 9.26
- Drug level in serum, 96 Hrs [4, 8]: 14.17 and 14.03 and 18.19
- Drug level in serum, 240 Hrs [4, 8]: 24.92 and 16.54 and 17.59
- AVG drug level in serum, 48 Hrs [4, 9]: 10.18
- AVG drug level in serum, 96 Hrs [4, 9]: 21.92
- AVG drug level in serum, 240 Hrs [4, 9]: 25.95
- Drug level in serum, 48 Hrs [4, 9]: 9.90 and 10.46
- Drug level in serum, 96 Hrs [4, 9]: 27.74 and 19.55 and 18.47
- Drug level in serum, 240 Hrs [4, 9]: 30.08 and 24.15 and 23.53
